Values quoted from earlier work, collected in patent publication US4440778A, “Anti-inflammatory analgesic cataplasm and process for producing the same” (Kowa Co., Ltd., priority 1981, dated 1984).

Key:
[1] = administered orally
[2] = not given; remark: listed apart in the source
[3] = mixed with and suspended in base components, pH 7 or higher

In the case of `COc1ccc2c(c1)c(CC(=O)O)c(C)n2C(=O)c1ccc(Cl)cc1` [indomethacin, Indomethacin], the “adverse effects: central nervous system troubles” value [1] is given as “central nervous system troubles such as frontal head ache, drowsiness, dizziness and mental disorders”, the “adverse effects: gastroenteric troubles” value [1] is given as “gastroenteric troubles such as decreased appetite, nausea, vomiting, indigestion, diarrhoea and stomach ache” and the “absorbability through the skin in a pH range of 7 or higher” value [3] is given as “less absorbable through the skin”. The percutaneous absorption (stratum corneum and basal cell layer act as barriers) was “not subject to percutaneous absorption”, the “chemical stability when dissolved in an alkaline solution” value ([2]; alkaline solution) was “chemically unstable and readily decomposable” and the “solubility in an alkaline solution” value ([2]; alkaline solution) was “soluble in an alkaline solution”. The “stability in a pH range of 7 or higher” value [2, 3] was “less stable” and the solubility in water ([2]; water) was “insoluble in water”.
